Test results as given in patent publication US20240360458A1, “TARGETED AND SLOW-RELEASE DRUG CONJUGATE COMPOSITION” (Centre for Eye and Vision Research Limited, priority 2023, published 2024).

Key:
[1] = test system: unidentified trypsin-sensitive surface protein(s) of human corneal epithelial cells (HCECs) (Homo sapiens); test: flow
[2] = test system: HCECs in hyperosmolarity medium; test: Cellular uptake and retention of CsA liposomes in dry eye HCECs model; format: cell-based, human; settings: DED model
Method: To construct a dry eye disease (DED) cell model, HPV-immortalized human corneal epithelial cells (HCECs) (passages 6-10) were maintained in DMEM/F12 medium supplemented with 1% FBS and 1% penicillin/streptomycin at 37° C., 95% humidity, and 5% CO2. The cell medium was changed every 2 days. To establish an in vitro DED model, sodium chloride was added to the culture medium to increase the osmolarity of the medium by 200 mOsM.
HCECs were seeded on glass bottom culture dishes at 10,000 cells/compartment for 24 h. To test the binding of the aptamer to cells, HCECs were incubated with FAM-labelled T30 DNA sequence (negative control), Cornea-S1, or Cornea-S2 aptamers for 30 min. […] HCECs cultured in the isosmotic medium were used as a control. After incubation, the cells were washed 2 times with ice-cold PBS and were then stained with 1 μg mL^−1 Hoechst 33342 in PBS for nucleus staining for 1 min at RT. Fluorescence images were captured at the mid-plane of cells (magnification: 400×) by Nikon Eclipse Ti Inverted Research Microscope. […]
The CsA-loaded liposomes were tested for cellular uptake and retention in a dry eye HCECs model induced by a high osmolarity medium. […] Additionally, liposome retention in cells was assessed by pretreating the cells with liposomes for 4 hours, followed by a 20-hour incubation period in liposome-free medium.

[3] = test system: cell surface protein of HCECs; test: Flow cytometry of aptamer binding to intact vs trypsin-treated HCECs; set-up: species or system human
Method: To understand the type of target, the HCECs were treated with trypsin, which degraded surface proteins.
(§1) The cells were then incubated with blocking buffer (1% BSA, 0.1 mg mL^−1 Salmon sperm DNA in PBS) for 30 min at room temperature. After washing with PBS under centrifugation, 3×10^5 cells were incubated with pre-heated Cornea-S1 or Cornea-S2 aptamers or aptamer liposomes at various concentrations in PBS for 30 min at room temperature. After incubation, the cells were rinsed three times with 500 μL of PBS and then resuspended in 200 μL of PBS. The fluorescence signal was analyzed with a NovoCyte Flow Cytometer (Agilent Technologies). The equilibrium dissociation constants (Kd) value of each aptamer or aptamer liposome was obtained by GraphPad Prism 9 according to […]

[4] = test system: human corneal epithelial cells (HCECs); test: Flow cytometry binding of FAM-labelled aptamers to HCECs; settings: FAM-labelled free aptamer, room temperature, read-out: dissociation constant (Kd) of aptamer in HCECs
Method: Due to the large size of cornea tissue, it is difficult to do quantitative binding assays. Thus, the binding of FAM-labelled aptamer to human corneal epithelial cells (HCECs) was tested using flow cytometry and fluorescence microscopy. BSA and salmon DNA were added to the blocking buffer to reduce non-specific binding before the incubation with FAM-labelled aptamers.
as §1

[5] = test system: human corneal epithelial cells (HCECs); test: Fluorescence microscopy of FAM-labelled aptamer binding in HCECs; settings: FAM-labelled DNA, 30 min incubation
Method: HCECs were seeded on glass bottom culture dishes at 10,000 cells/compartment for 24 h. To test the binding of the aptamer to cells, HCECs were incubated with FAM-labelled T30 DNA sequence (negative control), Cornea-S1, or Cornea-S2 aptamers for 30 min. […] HCECs cultured in the isosmotic medium were used as a control. After incubation, the cells were washed 2 times with ice-cold PBS and were then stained with 1 μg mL^−1 Hoechst 33342 in PBS for nucleus staining for 1 min at RT. Fluorescence images were captured at the mid-plane of cells (magnification: 400×) by Nikon Eclipse Ti Inverted Research Microscope. The excitation wavelengths of Hoechst, Rh-PE, and FAM were 361 nm, 560 nm, and 498 nm respectively.
Furthermore, the binding of FAM-labelled aptamers in HCECs was visualized under a fluorescence microscope.

[6] = test system: human corneal epithelial cells (HCECs); test: Flow cytometry binding affinity of aptamer CsA liposomes in HCECs; settings: liposome vs free aptamer
Method: The binding affinity of each aptamer liposome in HCECs was measured by flow cytometry. The cells were incubated with liposomes at room temperature, instead of in a 37° C. incubator, to reduce the internalization of liposomes by endocytosis. […] This apparent Kd is much lower than that observed in the free aptamers, for example, Cornea-S1 being 300-fold lower, and this was attributed to the stronger polyvalent binding increasing the avidity of the aptamer-functionalized liposomes.
as §1

[7] = test system: BAC-induced dry eye rabbit model; test: Corneal fluorescein staining in BAC-induced dry eye rabbits; format: in vivo, New Zealand White rabbits; settings: 4-week 0.1% BAC, then topical treatment twice daily up to 3 weeks
Method: (§2) A 4-week 0.1% BAC treatment could induce stable dry eye condition in rabbits and no severe corneal damage was observed. Thus, a 4-week 0.1% BAC installation followed by a 3-week topical treatment of Restasis® or liposomes was used in the present invention. Corneal fluorescein staining, tear breakup time and tear production were measured before and after BAC installation and weekly throughout the 3-week treatment period.
(§3) Ten male New Zealand White rabbits, weighing between 3 to 3.5 kg each, were procured from Charles River Laboratories. They were housed within the Centralized Animal Facility at the University of Waterloo, where they were subjected to a 12-hour cycle of alternating light and darkness. The temperature was maintained at 23° C.±2° C., with a relative humidity of 60%±10%. The entire experimental procedure was conducted by ethical guidelines and received approval from the Animal Care Committee under Application No. 44737. Upon a 2-week acclimation period, eight rabbits were chosen at random to induce stable dry eye disease. This was achieved through the topical application of 0.1% benzalkonium chloride (BAC) at a dosage of 20 μL per installation. This protocol was repeated twice a day (at 10 a.m. and 5 p.m.) for the subsequent 4 weeks. The remaining two rabbits constituted the control group and received PBS through a similar administration schedule. […]

[8] = test system: BAC-induced dry eye rabbit model; test: Tear production (Schirmer tear strips) in BAC-induced dry eye rabbits; format: in vivo, New Zealand White rabbits; settings: after 4-week 0.1% BAC installation
Method: as §2
as §3, with “disease.” for “disease. This was achieved through the topical application of 0.1% benzalkonium chloride (BAC) at a dosage of 20 μL per installation. This protocol was repeated twice a day (at 10 a.m. and 5 p.m.) for the subsequent 4 weeks. The remaining two rabbits constituted the control group and received PBS through a similar administration schedule.”
The aqueous tear production was measured with Schirmer Tear Strips (SPORTS WORLD VISION). The strips were placed inside the margin of the nictitating membrane of the lower eyelid of the rabbit for 5 min and the wetting length of the strip was measured as an indication of tear production.

[9] = test system: BAC-induced dry eye rabbit model; test: Tear break-up time (TBUT) in BAC-induced dry eye rabbits; format: in vivo, New Zealand White rabbits; settings: after 4 weeks of 0.1% BAC installation
Method: as §2
as §3, with “disease.” for “disease. This was achieved through the topical application of 0.1% benzalkonium chloride (BAC) at a dosage of 20 μL per installation. This protocol was repeated twice a day (at 10 a.m. and 5 p.m.) for the subsequent 4 weeks. The remaining two rabbits constituted the control group and received PBS through a similar administration schedule.”
Rabbits were sedated by the aforementioned procedure. TBUT was evaluated utilizing a handheld EasyTear® VIEW+ Tearscope with a grid pattern, in conjunction with the S4 OPTIK HR Elite Mega Digital Vision system. […] This measurement was repeated thrice to ensure accuracy, and an average value was calculated for analysis.

[10] = 3'-FAM, whole-cell apparent Kd, PBS, room temperature, 30 min, trypsin treatment lowers binding

GACGACTTATGCTTGGGACCTGATCCGGACTACGGTGTCGTCTTTTT [Cornea-S2-chol liposome]
Kd ([1]; 3'-cholesterol, inserted in CsA liposome (about 690 strands per liposome), polyvalent liposome on whole cells, p92 gives 15.1 nM): 15 nM

GACGACTTATGCTTGGGACCTGATCCGGACTACGGTGTCGTC [FAM-Cornea-S2]
Kd [1, 10]: 174 nM

Cornea-S2: DNA aptamer from cornea tissue-SELEX, family 2: GACGACTTATGCTTGGGACCTGATCCGGACTACGGTGTCGTC (DNA, backbone not given here; further chemistry not fully specified)
extended retention of liposomes [2]: up to 24 hours
FAM signals in trypsin-treated cells compared with intact cells [3]: significantly lower FAM signals
Kd [4]: 174 nM
FAM signals in HCECs under fluorescence microscope [5]: intensive FAM signals

Cornea-S1: DNA aptamer from cornea tissue-SELEX, family 1: GACGACGGCAAGGGGAAAGTGGTCGTAATCACGACGGTCGTC (DNA, backbone not given here; further chemistry not fully specified)
extended retention of liposomes [2]: up to 24 hours
FAM signals in trypsin-treated cells compared with intact cells [3]: significantly lower FAM signals
Kd [4]: 362 nM
apparent Kd of liposome lower than that of the free aptamer [6]: 300 fold
corneal fluorescein staining / corneal integrity [7]: markedly diminished to residual staining or isolated dots
FAM signals in HCECs under fluorescence microscope ([5]; listed as Conrea-S1): intensive FAM signals
FAM signals in HCECs under fluorescence microscope ([5]; listed as Corena-S1): observably higher than Conrea-S2 and S2.2 aptamer

GACGACGGCAAGGGGAAAGTGGTCGTAATCACGACGGTCGTC [FAM-Cornea-S1]
Kd [1, 10]: 362 nM

GACGACGGCAAGGGGAAAGTGGTCGTAATCACGACGGTCGTCTTTTT [Cornea-S1-chol liposome]
Kd ([1]; 3'-cholesterol, inserted in CsA liposome (about 690 strands per liposome), polyvalent liposome on whole cells, PBS, room temperature): 1.2 nM

benzalkonium chloride [BAC]
decrease in tear production [8]: 25-35%
reduction in TBUT compared to baseline [9]: 60-70%
